How the values were obtained:
[1] = system: high-activity behaviors in rats induced by PCP; assay: Effect on high-activity behaviors in rats induced by PCP; format: in vivo, Wistar rats; settings: for inhibition of high-activity behaviors in rats induced by PCP: Co. 1 5, 10 and 30 mg/kg i.p., Olanzepine 10 mg/kg i.p., PCP 5.0 mg/kg s.c., P<0.01 vs PCP group
Experimental: (§1) Animals used for experiments were adult male Wistar rats weighing 180˜250 g, housed in group of 6/cages, regulated with a 12/12 hour light/dark cycle, maintained at a constant temperature of 23±1° C. and a humidity of 50˜60% and allowed ad libitum access to rodent chow and water. After animals were purchased from the Experimental Animal Center, an adaptive housing was performed for a week, all the animals were randomly divided into three groups:
Group 1: negative control group, intraperitoneally injected with 1% DMSO in physiological saline (10.0 ml/kg, i.p.);
Group 2: experimental drug group, the rats were intraperitoneally injected respectively with different doses of test compound Co. 1: 5.0, 10 and 30 mg/kg, i.p., the drug was formulated in 1% DMSO in physiological saline.
Group 3: positive drug control group, the rats were intraperitoneally injected with Olanzepine (10 mg/kg, i.p., the drug was formulated in 1% DMSO in physiological saline)
The experiment employed Shanghai Jiliang animal behavior video analysis system, wherein the experimental environment was kept absolutely silent, when grabbing animals and administrating, movements were gentle to minimize adverse reactions of mental condition and emotion brought by external stimulus. The rats were moved from the animal room to a quiet lab and adapted for at least two hours. Subcutaneous injection of PCP (5.0 mg/kg, s.c.), or 1% DMSO in physiological saline as control, was administrated. 30 minutes later, the animals were intraperitoneally injected with the test compound, or 1% DMSO in physiological saline as control. The rats were placed in a spontaneous activity box, which was placed in an absolutely silent environment. The spontaneous activity box was connected to a recording apparatus and the activity conditions of rats were recorded for 30-60 minutes. The effect of drug or control on spontaneous activity in […] was determined.

[2] = system: spontaneous activity in rats; assay: Effect of test compound on spontaneous activity in rats (LMA); format: in vivo, Wistar rats; settings: 5.0, 10 and 30 mg/kg i.p.; 60 minutes after administration; recorded 30-60 minutes; P>0.05, Dunnett's test
Experimental: as §1, with “in groups” for “in group”, “into two” for “into three”
(§2) Group one: negative control group, intraperitoneally injected with 1% DMSO in physiological saline (10.0 ml/kg, i.p.);
Group two: experimental drug group, the rats were intraperitoneally injected respectively with different doses of test compound Co. 1: 5.0, 10 and 30 mg/kg, i.p., the drug was formulated in 1% DMSO in physiological saline.
The experiment employed Shanghai Jiliang animal behavior video analysis system, wherein the experimental environment was kept absolutely silent, when grabbing animals and administrating, movements were gentle to minimize adverse reactions of mental condition and emotion brought by external stimulus. […] The spontaneous activity box was connected to a recording apparatus and the activity conditions of rats were recorded for 30-60 minutes. The effect of drug or control on spontaneous activity in rats was determined.

[3] = system: high-activity behaviors in rats induced by Amphetamine; assay: Effect on high-activity behaviors in rats induced by Amphetamine; format: in vivo, Wistar rats; settings: for inhibition of high-activity behaviors in rats induced by Amphetamine: Co. 1 5, 10 and 30 mg/kg i.p., Olanzepine 10 mg/kg i.p., Amphetamine 1.0 mg/kg s.c., P<0.01 vs Amphetamine group
Experimental: as §1, §2
Group two: experimental drug group, the rats were intraperitoneally injected respectively with different amounts of test compound Co. 1: 5, 10 and 30 mg/kg, i.p., the drug was formulated in 1% DMSO in physiological saline.
Group three: positive drug control group, the rats were intraperitoneally injected with Olanzepine (10 mg/kg, i.p., the drug was formulated in 1% DMSO in physiological saline)
The experiment employed Shanghai Jiliang animal behavior video analysis system, wherein the experimental environment was kept absolutely silent, when grabbing animals and administrating, movements were gentle to minimize adverse reactions of mental condition and emotion brought by external stimulus. The rats were moved from the animal room to a quiet lab and adapted for at least two hours. Subcutaneous injection of Amphetamine (1.0 mg/kg, s.c.), or 1% DMSO in physiological saline as control, was administrated. 30 minutes later, the animals were orally administrated of the compound, or physiological saline as control. The rats were placed in a spontaneous activity box, which was placed in an absolutely silent environment. The spontaneous activity box was connected to a recording apparatus and the activity conditions of rats were recorded for 30-60 minutes. The effect of drug or control on spontaneous activity in rats was determined.

hERG = hERG (Homo sapiens, UniProt Q12809); assay: hERG (pKi); format: binding
Sequence of hERG (Q12809 whole entry): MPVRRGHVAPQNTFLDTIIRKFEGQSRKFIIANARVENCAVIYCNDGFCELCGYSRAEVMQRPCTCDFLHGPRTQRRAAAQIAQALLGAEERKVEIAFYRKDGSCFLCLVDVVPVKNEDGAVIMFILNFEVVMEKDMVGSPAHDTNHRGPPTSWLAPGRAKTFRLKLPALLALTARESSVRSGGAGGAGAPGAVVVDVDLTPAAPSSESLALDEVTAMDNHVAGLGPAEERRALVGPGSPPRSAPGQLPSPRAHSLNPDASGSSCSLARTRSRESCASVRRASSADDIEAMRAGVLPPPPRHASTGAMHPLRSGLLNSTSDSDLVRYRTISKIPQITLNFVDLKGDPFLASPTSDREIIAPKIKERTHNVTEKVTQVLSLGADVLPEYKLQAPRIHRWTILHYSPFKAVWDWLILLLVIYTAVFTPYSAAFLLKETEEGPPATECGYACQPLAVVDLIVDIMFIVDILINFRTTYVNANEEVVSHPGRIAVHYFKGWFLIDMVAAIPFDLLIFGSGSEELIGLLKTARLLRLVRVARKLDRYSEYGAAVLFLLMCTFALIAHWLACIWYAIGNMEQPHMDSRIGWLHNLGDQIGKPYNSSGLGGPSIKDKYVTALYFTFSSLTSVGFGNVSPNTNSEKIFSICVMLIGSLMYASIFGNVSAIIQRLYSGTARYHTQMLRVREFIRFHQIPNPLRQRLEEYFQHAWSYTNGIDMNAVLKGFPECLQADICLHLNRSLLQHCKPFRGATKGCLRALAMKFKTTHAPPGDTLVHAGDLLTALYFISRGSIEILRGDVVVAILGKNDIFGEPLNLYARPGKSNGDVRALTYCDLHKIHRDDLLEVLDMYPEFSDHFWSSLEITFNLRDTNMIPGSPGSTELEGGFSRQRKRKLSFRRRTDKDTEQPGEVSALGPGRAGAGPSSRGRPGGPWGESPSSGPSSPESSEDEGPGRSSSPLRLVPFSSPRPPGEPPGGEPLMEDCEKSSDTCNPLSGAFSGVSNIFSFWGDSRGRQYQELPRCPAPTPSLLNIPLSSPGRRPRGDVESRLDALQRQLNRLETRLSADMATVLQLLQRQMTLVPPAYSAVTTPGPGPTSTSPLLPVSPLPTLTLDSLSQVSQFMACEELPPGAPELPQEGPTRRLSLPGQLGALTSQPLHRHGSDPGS

GlyT1 = target: T1, GlyT1 (Homo sapiens, UniProt P48067); assay: Anti-glycine reuptake activity, GlyT1; format: cell-based; settings: listed as head criterion > 6; mean of three experiments; read-out: GlyT1 pEC50 (converted)
T1 sequence (P48067 1-706): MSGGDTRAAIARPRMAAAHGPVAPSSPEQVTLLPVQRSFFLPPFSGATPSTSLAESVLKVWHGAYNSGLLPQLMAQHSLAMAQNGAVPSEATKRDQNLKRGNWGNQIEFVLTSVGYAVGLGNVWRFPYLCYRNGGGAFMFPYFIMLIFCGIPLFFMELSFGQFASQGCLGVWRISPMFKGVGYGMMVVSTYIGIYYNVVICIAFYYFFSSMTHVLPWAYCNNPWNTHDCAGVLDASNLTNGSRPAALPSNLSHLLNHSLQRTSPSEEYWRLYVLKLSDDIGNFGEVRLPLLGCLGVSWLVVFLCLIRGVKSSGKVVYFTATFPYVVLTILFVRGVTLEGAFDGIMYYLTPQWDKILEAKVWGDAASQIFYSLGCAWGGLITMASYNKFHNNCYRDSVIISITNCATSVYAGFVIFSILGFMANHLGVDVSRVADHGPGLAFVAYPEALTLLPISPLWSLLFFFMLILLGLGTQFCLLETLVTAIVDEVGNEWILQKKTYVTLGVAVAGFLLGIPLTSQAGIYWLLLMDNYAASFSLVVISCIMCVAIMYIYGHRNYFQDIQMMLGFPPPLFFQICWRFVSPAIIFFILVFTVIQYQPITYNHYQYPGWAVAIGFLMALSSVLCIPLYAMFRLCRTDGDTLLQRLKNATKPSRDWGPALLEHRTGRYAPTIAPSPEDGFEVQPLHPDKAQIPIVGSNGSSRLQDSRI
From the text: (§3) methods commonly used in the art were employed to determine the anti-glycine reuptake activity of the compound of the present invention. The experiment was repeated for three times and the mean value was taken.

Rat PK = format: in vivo
Cmax in rat CSF = format: in vivo; settings: sc, 10 mg/kg s.c.
G1yT2 = target: T2, G1yT2 (Homo sapiens, UniProt Q9Y345); assay: Selectivity vs GlyT2; format: cell-based; settings: listed as head criterion >10 × vs G1yT2
T2 sequence (Q9Y345 1-797): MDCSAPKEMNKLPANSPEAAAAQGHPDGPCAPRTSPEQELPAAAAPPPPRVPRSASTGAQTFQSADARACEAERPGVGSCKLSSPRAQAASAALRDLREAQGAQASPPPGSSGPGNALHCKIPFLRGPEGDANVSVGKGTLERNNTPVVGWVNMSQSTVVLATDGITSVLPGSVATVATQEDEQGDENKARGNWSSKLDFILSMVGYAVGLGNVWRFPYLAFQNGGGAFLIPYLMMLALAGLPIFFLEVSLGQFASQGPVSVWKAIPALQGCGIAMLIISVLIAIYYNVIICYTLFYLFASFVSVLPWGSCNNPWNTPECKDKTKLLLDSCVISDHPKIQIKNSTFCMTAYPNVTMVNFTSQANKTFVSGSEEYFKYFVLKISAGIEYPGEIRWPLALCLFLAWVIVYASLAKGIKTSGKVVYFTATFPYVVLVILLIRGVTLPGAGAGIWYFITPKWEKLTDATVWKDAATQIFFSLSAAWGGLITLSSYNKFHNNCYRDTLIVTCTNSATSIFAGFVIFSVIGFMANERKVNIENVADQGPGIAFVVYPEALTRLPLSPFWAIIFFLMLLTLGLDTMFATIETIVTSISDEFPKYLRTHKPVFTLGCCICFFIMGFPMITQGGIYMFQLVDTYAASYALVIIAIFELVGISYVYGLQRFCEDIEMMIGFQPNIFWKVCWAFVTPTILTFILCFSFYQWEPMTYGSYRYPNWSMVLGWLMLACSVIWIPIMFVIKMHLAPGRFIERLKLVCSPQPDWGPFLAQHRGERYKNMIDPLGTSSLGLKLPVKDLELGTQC
From the text: as §3

[4] = Measured Clint, R-heps (hepatocytes); format: in vitro ADME, rat
in vitro = in vitro ADME; settings: microsomes
From the text: as §3

NET = NET (Homo sapiens, UniProt P23975); assay: Selectivity, NET; format: cell-based; settings: read-out: Selectivity NET pEC50 (converted)
Sequence of NET (P23975 whole entry): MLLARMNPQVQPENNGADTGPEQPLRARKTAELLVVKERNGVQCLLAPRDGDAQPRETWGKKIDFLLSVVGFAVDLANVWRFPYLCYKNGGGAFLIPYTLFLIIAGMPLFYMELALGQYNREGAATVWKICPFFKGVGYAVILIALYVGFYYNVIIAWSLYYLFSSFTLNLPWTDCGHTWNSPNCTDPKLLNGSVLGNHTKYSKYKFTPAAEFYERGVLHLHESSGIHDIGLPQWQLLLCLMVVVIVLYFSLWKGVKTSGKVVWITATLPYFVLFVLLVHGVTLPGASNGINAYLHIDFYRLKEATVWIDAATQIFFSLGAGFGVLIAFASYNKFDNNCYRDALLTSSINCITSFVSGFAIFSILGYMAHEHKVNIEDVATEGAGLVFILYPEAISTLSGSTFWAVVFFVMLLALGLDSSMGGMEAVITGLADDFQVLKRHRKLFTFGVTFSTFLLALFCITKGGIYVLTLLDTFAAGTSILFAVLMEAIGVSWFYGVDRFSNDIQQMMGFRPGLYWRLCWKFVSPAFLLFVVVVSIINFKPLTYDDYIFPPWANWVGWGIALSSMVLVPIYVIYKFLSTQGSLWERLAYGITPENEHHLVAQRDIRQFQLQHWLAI

effect on spontaneous activity in rats [2]	EC50 (GlyT1)	Rat PK C1 (Rat PK)	Rat PK P (Rat PK)	Cmax (Cmax in rat CSF)	G1yT2 effect at 10-5 M (G1yT2)	Measured Clint R-heps [4]	microsomal CLint (in vitro; human)	microsomal CLint (in vitro; rat)	EC50 (NET)	Structure (SMILES)	inhibition of high-activity behaviors in rats induced by PCP [1]	inhibitory effect on PCP-induced high-activity behaviors compared with the positive drug Olanzepine ([1]; P<0.05, Dunnett's test, compared with the Olanzepine/PCP group)	inhibition of high-activity behaviors in rats induced by Amphetamine [3]	inhibitory effect on Amphetamine-induced high-activity behaviors compared with the positive drug Olanzepine ([3]; P<0.05, Dunnett's test, compared with the Olanzepine/Amphetamine group)	Ki (hERG)
no significant effect										Cc1cc(C(=O)N[C@@H](CN2CCCCC2)C(C)C)cc(-c2ccccc2C(F)(F)F)n1 [Co. 1]	significantly inhibited	stronger	significantly inhibited	stronger	
	63.1 nM	52 mL/min/kg	< 1%	60 nM	14% @ 10-5 M	R-heps 15 ul/ml/106 cells	135 µL/min/mg	81 µL/min/mg	316 nM	CCC(C)[C@@H](CN1CCCCC1)NC(=O)c1cc(C)nc(-c2cc(C)ccc2C(F)(F)F)c1 (some centres unmarked) [Co. 2]					12600 nM
										Cc1cc2c(s1)Nc1ccccc1N=C2N1CCN(C)CC1 [Olanzepine, reference compound]	significantly inhibited		significantly inhibited		

Source: patent US20150133497A1, “GLYCINE REUPTAKE INHIBITOR AND USE THEREOF” (Beijing Medisan Technology Co., Ltd., priority 2011, published 2015)
